One experiment relates to EXCY2 mice. Kind of experiment: Spontaneous UC-like colitis in EXCY2 mice (IL10-/-; Nox1-/-): DAI, colon histology, stress pathways. Particulars: for DAI score: OxA 0.22 μmoles/kg intraperitoneal or 5-ASA 0.053 g/kg oral, scale 0 (no symptoms) to 4 (severe colitis), untreated mice 4, FIG. 7; for severe colitis: 10 week-old EXCY2 mice, 2 IP/week during 3 weeks. In kind it is in vivo. The text has this:
FIG. 4: Histological aspect of colon mucosa in OxA treated mice (right) and non-treated mice (left)
FIG. 7: OXA better improves the DAI (weight and colitis score) of EXCY2 mice that the gold standard 5-aminosalicylic acid (5-ASA) treatment. Mice were intraperitoneal injected or not with OxA (0.22 μmoles/kg) or orally treated with 5-ASA (0.053 g/kg). DAI score including the weight loss, severity of diarrhea, the presence of blood in the stool, inflammation and edema was estimated using a scale ranging from 0 (no symptoms) to 4 (severe colitis).
DSS mouse model has been extensively used to decipher the mucosal inflammation in IBD, UC pathogenesis, and preclinical studies. However, mice show differential susceptibilities and responsiveness to DSS-induced colitis depending on their genetic background, gender. DSS model is a faithful model of inflammation but departs from Ulcerative Colitis in part for lack of the inflammation gradient from the rectum to the proximal colon usually observed in UC, any deregulation of ER stress in goblet cells known to be an early etiological factor of UC, and no digestive or extra-digestive complications of UC such as cholangitis and colorectal cancer, respectively. The use of genetically modified mice model represents a good alternative to chemically-induced colitis mice model. The recent development of a new spontaneous UC-like mouse model (EXCY2 mice, WO/2012/140516) consisting of a double KO of IL10 and Nox1 (IL10^−/−; Nox1^−/−) is ideally suited to study the OxA effect on spontaneous colitis. Indeed, EXCY2 mice 1) develop a spontaneous colitis at 6/7 weeks of age with an upwards gradient from the rectum and reproduce all molecular characteristics seen in UC including, loss of goblet cells, deregulation of ER stress, protective effect of tobacco; 2) spontaneously colonic cancer at 8 months of age (35-40% of mice); 3) develop mild cholangitis.
(§1) In contrast, the secretion of anti-inflammatory cytokine IL10 was unchanged (FIG. 6).
The treatment of EXCY2 mice with 5-ASA reduced the DAI score as compared to untreated mice, i.e. 3 vs 4, respectively.

A further experiment has as its system DSS-induced colitis mice. Kind of experiment: DSS-induced colitis in mice: Disease Activity Index and colon histology. The experiment is classed as in vivo. The text has this: FIG. 2: OXA ameliorates the DAI (weight and colitis score) of DSS-induced colitis mice. Mice were orally treated with 5% DSS for 7 days.
FIG. 5: OXA ameliorates the DAI (weight and colitis score) of DSS-induced colitis mice. Mice were orally treated with 5% DSS for 7 days in the presence or in the absence of daily intraperitoneal injection of OxA (0.22 μmoles/kg). DAI score including weight loss, severity of diarrhea, the presence of blood in the stool, inflammation and edema was estimated using a scale ranging from 0 (no symptoms) to 4 (severe colitis). DSS, dextran sulfate sodium; WT, wild type mice.
Based on these observations, we have investigated the effect of Orexin A (OxA) on acute inflammation in mice treated with Dextran Sulfate Sodium (DSS). OxA was preferentially chosen in these experiments since the presence of two disulphide bridges confers it more stability. DSS induces acute colitis characterized by weight loss, bloody diarrhea, intestinal ulcerations and infiltrations with granulocytes.
(§2) These observations are confirmed by histologic aspect of colon epithelium (histologic scoring by a GI pathologist). Thus, OxA has probably an anti-inflammatory effect on DSS-induced colitis. To confirm this hypothesis, we have investigated the anti-inflammatory effect of OxA treatment on cytokines secretion in colon extracts from DSS-treated mice. […] In contrast, OxA has no effect on INFγ, IL10, and IL12 cytokine secretion in colon extracts (FIG. 3).
As shown in FIG. 5 when DSS-induced colitis mice were treated with OxA, the DAI score was ameliorated (about of 1.5).

Experiment [1] deals with cytokines secretion in EXCY2 mice. In words: Cytokine secretion in colons of EXCY2 mice (Cytokine CBA kits). The experiment is classed as in vivo. Particulars: OxA 0.22 μmoles/kg, FIG. 6. The protocol:
FIG. 6: OXA effects on cytokines secretion in EXCY2 mice. Colons of EXCY2 mice from untreated mice (white) and treated with OxA (0.22 μmoles/kg) treatment (black) were resected after animal sacrifice. Then, protein extraction was performed by tissue disruption. Cytokines were determined using Cytokine CBA kits (see Material and Methods).
as §1

Another experiment concerns Caco2 cells. In words: Oxidative stress and ER stress pathways in Caco2 cells. The experiment is classed as cell-based.
Experiment [2] has as its system cytokines secretion in colon extracts from DSS-treated mice. In words: Cytokine secretion in colon extracts of DSS-induced colitis mice. The experiment is classed as in vivo. The following applies: FIG. 3.
Excerpt: FIG. 3: OXA effects on cytokines secretion in DSS-induced colitis mice
as §2

The mark [3] stands for this setting: colon extracts of DSS-induced colitis mice.
Where [4] appears, read: colon extracts of DSS-treated mice.

As to `Nc1ccc(O)c(C(=O)O)c1` [5-ASA, 5-aminosalicylic acid, reference compound], in the experiment with EXCY2 mice (EXCY2 mice), the DAI score came out at 3.

On to “Orexin-A (XPLPDCCRQKTCSCRLYELLHGAGNHAAGILTLX; not fully specified; two disulphide bridges; MOD_RES (1)..(1) PYRROLIDONE CARBOXYLIC ACID; (34)..(34) Xaa can be any naturally occurring amino acid; listed as Homo sapiens) [OxA]”, for which the DAI score with DSS-induced colitis mice (5% DSS orally 7 days, daily intraperitoneal OxA 0.22 μmoles/kg, scale 0 (no symptoms) to 4 (severe colitis), FIG. 5, printed as 'ameliorated (about of 1.5)') is reported as around 1.5. Besides, in the experiment on DSS-induced colitis mice (DSS-treated mice, histologic scoring by a GI pathologist), the “histologic aspect of colon epithelium” value is listed as “ameliorates”. Also, the “Disease Activity Index (DAI) scored by measuring weight, length of colon, diarrhea and the presence of blood in the stool” value in the experiment on DSS-induced colitis mice (orally DSS-treated mice (5% DSS for 7 days), FIG. 2) was “ameliorates”. The severe colitis result in the experiment with EXCY2 mice (0.22 μmoles/kg OxA) was “alleviated”. Besides, the severe colitis result with EXCY2 mice (1 μM OxA) is recorded as “alleviated”. In addition, in the experiment with EXCY2 mice (EXCY2 mice), the “deregulated pathways involved in the onset of colitis (oxidative stress and ER stress)” value is listed as “induced”; the DAI score came to 1.5. The “colonic mucosa (general crypts aspect, crypt size, presence of goblet cells, absence of immune cells infiltration)” value with EXCY2 mice (OxA-treated vs vehicle treated EXCY2 mice, FIG. 4) was “normal colonic mucosa”. In experiment [1], the IFNγ secretion result was “strong reduction”, the IL6 secretion entry is given as “strong reduction”, the IL10 secretion result is recorded as “unchanged” and the IL12 secretion entry is reported as “strong reduction”. In experiment [1], the MCP1 secretion entry is recorded as “strong reduction” and the TNFα secretion result was “strong reduction”. Further, the “deregulated pathways involved in the onset of colitis (oxidative stress and ER stress)” value in the experiment on Caco2 cells is “induced”. In experiment [2] (setting [3]), the IL1B secretion entry is “reduces”, the IL6 secretion result is listed as “reduces”, the IL8 homolog secretion result is “reduces” and the TNFα secretion entry is recorded as “reduces”. In experiment [2] (setting [4]), the IL10 cytokine secretion entry is “no effect”, the IL12 cytokine secretion entry is “no effect” and the INFγ cytokine secretion result is given as “no effect”.

The values above are taken from patent publication US10172921B2, “Method of treating an inflammatory bowel disease comprising agonists of orexin-1 receptor” (INSERM (INSTITUT NATIONAL DE LA SANTÉ ET DE LA RECHERCHE …, priority 2014, dated 2019).
